According to BigSolDB 2.1:

## CN1COCN(Cc2cnc(Cl)s2)C1=N[N+](=O)[O-]
In DMF, 278.15 K
  solubility (mole fraction): 0.059
In DMF, 283.15 K
  solubility (mole fraction): 0.0658
In DMF, 288.15 K
  solubility (mole fraction): 0.0738
In DMF, 293.15 K
  solubility (mole fraction): 0.0816
In DMF, 298.15 K
  solubility (mole fraction): 0.0892
In DMF, 303.15 K
  solubility (mole fraction): 0.0985
In DMF, 308.15 K
  solubility (mole fraction): 0.11
In DMF, 313.15 K
  solubility (mole fraction): 0.123
In DMF, 318.15 K
  solubility (mole fraction): 0.137
In DMF, 323.15 K
  solubility (mole fraction): 0.152
In NMP, 278.15 K
  solubility (mole fraction): 0.0818
In NMP, 283.15 K
  solubility (mole fraction): 0.0882
In NMP, 288.15 K
  solubility (mole fraction): 0.0952
In NMP, 293.15 K
  solubility (mole fraction): 0.102
In NMP, 298.15 K
  solubility (mole fraction): 0.111
In NMP, 303.15 K
  solubility (mole fraction): 0.119
In NMP, 308.15 K
  solubility (mole fraction): 0.128
In NMP, 313.15 K
  solubility (mole fraction): 0.138
In NMP, 318.15 K
  solubility (mole fraction): 0.149
In NMP, 323.15 K
  solubility (mole fraction): 0.161
In acetone, 278.15 K
  solubility (mole fraction): 0.00632
In acetone, 283.15 K
  solubility (mole fraction): 0.00763
In acetone, 288.15 K
  solubility (mole fraction): 0.00888
In acetone, 293.15 K
  solubility (mole fraction): 0.0101
In acetone, 298.15 K
  solubility (mole fraction): 0.0121
In acetone, 303.15 K
  solubility (mole fraction): 0.014
In acetone, 308.15 K
  solubility (mole fraction): 0.0164
In acetone, 313.15 K
  solubility (mole fraction): 0.0194
In acetone, 318.15 K
  solubility (mole fraction): 0.023
In acetone, 323.15 K
  solubility (mole fraction): 0.0268
In dichloromethane, 278.15 K
  solubility (mole fraction): 0.0126
In dichloromethane, 283.15 K
  solubility (mole fraction): 0.0152
In dichloromethane, 288.15 K
  solubility (mole fraction): 0.0174
In dichloromethane, 293.15 K
  solubility (mole fraction): 0.0197
In dichloromethane, 298.15 K
  solubility (mole fraction): 0.0222
In dichloromethane, 303.15 K
  solubility (mole fraction): 0.0249
In dichloromethane, 308.15 K
  solubility (mole fraction): 0.0277
In dichloromethane, 313.15 K
  solubility (mole fraction): 0.0306
In ethyl acetate, 278.15 K
  solubility (mole fraction): 0.00099
In ethyl acetate, 283.15 K
  solubility (mole fraction): 0.00125
In ethyl acetate, 288.15 K
  solubility (mole fraction): 0.00155
In ethyl acetate, 293.15 K
  solubility (mole fraction): 0.00183
In ethyl acetate, 298.15 K
  solubility (mole fraction): 0.0022
In ethyl acetate, 303.15 K
  solubility (mole fraction): 0.00257
In ethyl acetate, 308.15 K
  solubility (mole fraction): 0.00295
In ethyl acetate, 313.15 K
  solubility (mole fraction): 0.00339
In ethyl acetate, 318.15 K
  solubility (mole fraction): 0.00384
In ethyl acetate, 323.15 K
  solubility (mole fraction): 0.00429
In methyl acetate, 278.15 K
  solubility (mole fraction): 0.00283
In methyl acetate, 283.15 K
  solubility (mole fraction): 0.00331
In methyl acetate, 288.15 K
  solubility (mole fraction): 0.00382
In methyl acetate, 293.15 K
  solubility (mole fraction): 0.00446
In methyl acetate, 298.15 K
  solubility (mole fraction): 0.00511
In methyl acetate, 303.15 K
  solubility (mole fraction): 0.00597
In methyl acetate, 308.15 K
  solubility (mole fraction): 0.00708
In methyl acetate, 313.15 K
  solubility (mole fraction): 0.00825
In methyl acetate, 318.15 K
  solubility (mole fraction): 0.0096
In methyl acetate, 323.15 K
  solubility (mole fraction): 0.0114
